In patent US11464250B2, “Natural compound sweetener and preparation method therefor” (HUNAN HUACHENG BIOTECH INC., priority 2017, dated 2022):

Experiments:
[1] = times that of saccharose, cited from earlier work
[2] = electronic tongue tasting, intelligent gustation analysis system TS-5000Z; conditions: 1% (mass concentration) saccharose as standard; FIG. 1-FIG. 3
Description: Method II: an intelligent gustation analysis system TS-5000Z, namely an electronic tongue is adopted to perform tasting, an artificial fat membrane sensor technology, of which an operating principle is similar to that of human tongue gustation cells, is employed, basic gustatory sensory indexes such as bitter taste, astringent taste, sour taste, saline taste, fresh taste, sweet taste and raw material original taste of samples such as foods or drugs can be objectively and digitally evaluated, and meanwhile, a bitter aftertaste, an astringent aftertaste and a fresh aftertaste (abundance) can be further analyzed. Drawing is performed according to test data, and electronic tongue tasting test data graphs of the natural compound sweeteners in the embodiments 1-3 are separately shown in FIG. 1-FIG. 3.

## C[C@H](CC[C@@H](O[C@@H]1O[C@H](CO[C@@H]2O[C@H](CO)[C@@H](O)[C@H](O)[C@H]2O)[C@@H](O)[C@H](O)[C@H]1O[C@@H]1O[C@H](CO)[C@@H](O)[C@H](O)[C@H]1O)C(C)(C)O)[C@H]1CC[C@@]2(C)[C@@H]3CC=C4[C@@H](CC[C@H](O[C@@H]5O[C@H](CO[C@@H]6O[C@H](CO)[C@@H](O)[C@H](O)[C@H]6O)[C@@H](O)[C@H](O)[C@H]5O)C4(C)C)[C@]3(C)[C@H](O)C[C@]12C [Mogroside V]
[1]
  maximum sweetness relative to saccharose: 420 times

## C=C1C[C@@]23CC[C@H]4[C@@](C)(CCC[C@@]4(C)C(=O)O[C@@H]4O[C@H](CO)[C@@H](O)[C@H](O)[C@H]4O)[C@@H]2CC[C@]1(O[C@@H]1O[C@H](CO)[C@@H](O)[C@H](O[C@@H]2O[C@H](CO)[C@@H](O)[C@H](O)[C@H]2O)[C@H]1O[C@@H]1O[C@H](CO)[C@@H](O)[C@H](O)[C@H]1O)C3 [rebaudioside A]
[2]
  electronic tongue taste profile: partial to a herbal medicine taste, namely a raw-material original taste is very strong

## rebaudioside C [Reb C]
[1]; from CN104144605A discussion
  sweetness relative to saccharose: 300 times
